Measurements: patent US20250127728A1, “Constrained Ionizable Cationic Lipids and Lipid Nanoparticles” (CAPSTAN THERAPEUTICS, INC., priority 2023, published 2025)
“Also recorded” adds a separate entry of the source. Read-outs that look alike come from different tables or passages of the source. Values belong to the molecule of their own block, whether it stands above or below them.

Key:
[1] = apparent or measured pKa of ionizable lipid in the lipid nanoparticle, TNS assay; format: physicochemical
Method: The apparent or measured pKa of ionizable lipid in the lipid nanoparticle was determined using 6-(p-toluidino)-2-naphthalenesulfonic acid sodium salt (TNS salt, Toronto Research Chemicals, Toronto, ON, Canada). Lipid nanoparticles were diluted in 1×Dulbecco's PBS to a concentration of 1 mM total lipids. TNS salt was prepared as a 1 mg/mL stock solution in DMSO and then further diluted using distilled water to a working solution of 60 μg/mL ([…]). Diluted lipid nanoparticle samples were further diluted to 90 μM total lipids in 165 μL of buffered solution containing 10 mM HEPES, 10 mM MES, 10 mM ammonium acetate, 130 mM NaCl, and final TNS concentration of 1.33 μg/mL (4 μM) with the pH ranging from 3.5 to 12.2. Following pipette mixing and incubation at room temperature in the dark for 15 min, fluorescence intensity was measured at room temperature in a BioTek Synergy H1 plate reader using excitation and emission wavelengths of 321 and 445 nm, respectively. The fluorescence signal was blank subtracted and plotted as a function of the pH, then analyzed using a nonlinear (Boltzmann) regression analysis with the apparent pKa determined as the pH giving rise to half maximal fluorescence intensity as calculated by the Henderson-Hasselbalch equation.

splenic T cells = test: in vivo transfection with mCherry mRNA by CD5-targeted tLNP, splenic T cells; details: C57BL/6 mice; for transfection rate in spleen T cells: 10 μg mRNA tail vein, 24 hours; for effect of ionizable cationic lipid content (50%, 58%, 62%, 65%) on transfection rate / performance of tLNP: transfection rate and expression level (MESF): in words
Method: (§1) To assess the ability of a constrained ionizable cationic lipids to facilitate in vivo transfection of T cells with mCherry mRNA (SEQ ID NO. 5), tLNP incorporating CICL-207, or for comparison, CICL-1, and conjugated to an anti-mouse CD5 antibody were prepared and administered to C57BL/6 mice. The tLNP comprised either CICL-207 or CICL-1, DSPC, cholesterol, either DMG-PEG(2000) or DSG-PEG(2000), and DSPE-PEG(2000)-maleimide in the proportions indicated in Table 7 (below) and an N/P ratio of 6. CICL-1 has the structure:
Briefly, to prepare the tLNP, N1-methylpseudouridine (m1ψ)-substituted mCherry mRNA was encapsulated in LNP using a self-assembly process in which an aqueous solution of mRNA at pH 3.5 was rapidly mixed with a solution of lipids dissolved in ethanol, then followed by stepwise phosphate and Tris buffer dilution and tangential flow filtration (TFF) purification. Then an anti-CD5 mAb was conjugated to the above LNP to generate tLNP. Purified rat anti-mouse CD5 antibody, clone 53-7.3 (BioLegend), was coupled to LNP via N-succinimidyl S-acetylthioacetate (SATA)-maleimide conjugation chemistry. Briefly, LNPs with DSPE-PEG(2000)-maleimide incorporated were formulated and stored at 4° C. on the day of conjugation. The antibody was modified with SATA (Sigma-Aldrich) to introduce sulfhydryl groups at accessible lysine residues allowing conjugation to maleimide. SATA was deprotected using 0.5 M hydroxylamine followed by removal of the unreacted components by G-25 Sephadex Quick Spin Protein columns (Roche Applied Science, Indianapolis, IN). The reactive sulfhydryl group on the antibody was then conjugated to maleimide moieties on the LNPs using thioether conjugation chemistry. Purification was performed using Sepharose CL-4B gel filtration columns (Sigma-Aldrich). tLNPs (LNPs conjugated with a targeting antibody) were frozen at −80° C.
The mice were administered tLNPs containing 10 μg of mRNA by tail vein injection and tissue was harvested 24 hours later. […] These same trends have been observed with tLNP comprising CICL-1 as the ionizable lipid (data not shown). The tLNP comprising 58% ionizable cationic lipid had similarly low transfection rates (<4%) for CD45^− liver cells (hepatocytes)(FIG. 1B). […]

[2] = test system: liver Kupffer cells (CD45+/CD11+ liver cells); test: in vivo transfection with mCherry mRNA by CD5-targeted tLNP, liver Kupffer cells; details: C57BL/6 mice, 10 μg mRNA tail vein, 24 hours
Method: as §1
Briefly, to prepare the tLNP, N1-methylpseudouridine (m1ψ)-substituted mCherry mRNA was encapsulated in LNP using a self-assembly process in which an aqueous solution of mRNA at pH 3.5 was rapidly mixed with a solution of lipids dissolved in ethanol, then followed by stepwise phosphate and Tris buffer dilution and tangential flow filtration (TFF) purification. Then an anti-CD5 mAb was conjugated to the above LNP to generate tLNP. […]
Further ionizable cationic lipids according to Formula M2 were incorporated into tLNP and the ability of the tLNP to transfect cells in vivo assessed essentially as described in the preceding Example. Their physicochemical properties as determined in various experiments are compiled in Table 10.

[3] = tolerability of F50 LNP: liver enzymes, acute phase proteins, cytokines; format: in vivo, Sprague Dawley rats; details: rats, intravenous, up to 8 mg/kg
[4] = test system: luciferase mRNA expression in liver, spleen and other organs; test: luciferase biodistribution (organ bioluminescence) of LNP and CD5-targeted tLNP; format: in vivo, C57Bl/6 mice; details: 2 μg mRNA/animal
Method: LNP and tLNP with the F9 and F50 composition were prepared as example 66 described, except the payload consisted of mRNA encoding luciferase (SEQ ID NO. 4).
Eight-week-old female C57BI)6 mice (Charles River Laboratories) were intravenously injected with […] or F50 LNPs or CD5-targeted tLNPs encapsulating mRNA encoding luciferase at a dose of 2 μg mRNA/animal via the tail vein. At 6 hours post-injection, prone and supine bioluminescence images were collected from all mice (FIGS. 8A-8B). Following whole-animal imaging, the mice were sacrificed, and the following tissues were collected: liver, spleen, lung, kidneys (both), heart, bone marrow (femur), lymph nodes (left and right inguinal), and brain. Tissues were placed into luciferin pre-filled black polystyrene plates with spacing between tissues, and bioluminescent images were collected at 6 hours and 24 hours post-injection (FIGS. 8C-8D, respectively).

[5] = tolerability of LNP-containing compositions in rat (general statements); details: tLNP, single doses
[6] = apparent or measured pKa of ionizable lipid in the lipid nanoparticle, TNS assay; format: physicochemical; details: predicted from c-pKa and measured pKa of CICL-207
[7] = Table 11, in tLNP formulation, read-out: Measured pKa
[8] = read-out: measured pKa (in tLNP formulation)

SMILES: CCCCCCCCC(=O)OCC(COC(=O)CCCCCCCC)CC(=O)O[C@H]1C=C[C@H](OC(=O)CC(COC(=O)CCCCCCCC)COC(=O)CCCCCCCC)CN(C(=O)OCCN(C)C)C1 (racemic) [CICL-218, (((Rel-(3S,6S)-1-((2-(dimethylamino)ethoxy)carbonyl)-2,3,6,7-tetrahydro-1H-azepine-3,6-diyl)bis(oxy))bis(2-oxoethane-2,1-diyl))bis(propane-2,1,3-triyl) tetranonanoate]
pKa [1, 7]: 6.07 | pKa [1, 8]: 6.11 | transfection rate in spleen T cells (splenic T cells): ca. 20%

SMILES: CCCCCCCCC(=O)OCC(COC(=O)CCCCCCCC)CC(=O)OCCN(CCOC(=O)CC(COC(=O)CCCCCCCC)COC(=O)CCCCCCCC)C(=O)OCCN(C)C [CICL-1, reference compound]
transfection rate for liver Kupffer cells (CD45+/CD11+) [2]: ~6%

SMILES: CCCCCCCCC(=O)OCC(COC(=O)CCCCCCCC)CC(=O)OC[C@@H]1C[C@@H](OC(=O)CC(COC(=O)CCCCCCCC)COC(=O)CCCCCCCC)CN1C(=O)OCCN(C)C [CICL-207, 2-(2-(((2S,4R)-1-((2-(dimethylamino)ethoxy)carbonyl)-4-((4-(nonanoyloxy)-3((nonanoyloxy)methyl)butanoyl)oxy)pyrrolidin-2-yl)methoxy)-2-oxoethyl)propane-1,3-diyl dinonanoate]
transfection rate for liver Kupffer cells (CD45+/CD11+) [2]: similarly low levels | tolerability [3]: well tolerated | bioluminescence in non-target organs [4]: generally producing the least bioluminescence | single dose generally well tolerated [5]: at least 8 mg/kg | effect of ionizable cationic lipid content (50%, 58%, 62%, 65%) on transfection rate (splenic T cells): greater for CICL-207 than for CICL-225 in splenic T cells; also recorded: decreased performance | performance of tLNP: transfection rate and expression level (MESF) (splenic T cells): best performing composition; also recorded: somewhat more desirable transfection rates

SMILES: CCCCCCCCC(=O)OCC(COC(=O)CCCCCCCC)CC(=O)OC[C@@H]1C[C@@H](OC(=O)CC(COC(=O)CCCCCCCC)COC(=O)CCCCCCCC)CN1C(=O)OCCN(CCC)CCC [CICL-207-109]
measured pKa in formulation (prediction) [6]: close to the desired pKa=6-7 midpoint

SMILES: CCCCCCCCC(=O)OCC(COC(=O)CCCCCCCC)CC(=O)OC[C@@H]1C[C@@H](OC(=O)CC(COC(=O)CCCCCCCC)COC(=O)CCCCCCCC)CN1C(=O)OCCN1CCCCC1 [CICL-207-119]
measured pKa in formulation (prediction) [6]: close to the desired pKa=6-7 midpoint

SMILES: CCCCCCCCC(=O)OCC(COC(=O)CCCCCCCC)CC(=O)OC[C@@H]1C[C@@H](OC(=O)CC(COC(=O)CCCCCCCC)COC(=O)CCCCCCCC)CN1C(=O)OCCCN1CCC(O)CC1 [CICL-207-122]
measured pKa in formulation (prediction) [6]: close to the desired pKa=6-7 midpoint

SMILES: CCCCCCCCC(=O)OCC(COC(=O)CCCCCCCC)CC(=O)OC[C@@H]1C[C@@H](OC(=O)CC(COC(=O)CCCCCCCC)COC(=O)CCCCCCCC)CN1C(=O)OCCN(C)c1ccncc1 [CICL-207-130]
measured pKa in formulation (prediction) [6]: close to the desired pKa=6-7 midpoint

SMILES: CCCCCCCCC(=O)OCC(COC(=O)CCCCCCCC)CC(=O)OC[C@@H]1C[C@H](OC(=O)CC(COC(=O)CCCCCCCC)COC(=O)CCCCCCCC)CN1C(=O)OCCN(C)C [CICL-224, 2-(2-(((2S,4S)-1-((2-(dimethylamino)ethoxy)carbonyl)-4-((4-(nonanoyloxy)-3-((nonanoyloxy)methyl)butanoyl)oxy)pyrrolidin-2-yl)methoxy)-2-oxoethyl)propane-1,3-diyl dinonanoate]
pKa [1, 7]: 6.98 | pKa [1, 8]: ~7 | transfection rate in spleen T cells (splenic T cells): below 40%

SMILES: CCCCCCCCC(=O)OCC(COC(=O)CCCCCCCC)CC(=O)OC[C@H]1C[C@H](OC(=O)CC(COC(=O)CCCCCCCC)COC(=O)CCCCCCCC)CN1C(=O)OCCN(C)C [CICL-225, 2-(2-(((2R,4S)-1-((2-(dimethylamino)ethoxy)carbonyl)-4-((4-(nonanoyloxy)-3-((nonanoyloxy)methyl)butanoyl)oxy)pyrrolidin-2-yl)methoxy)-2-oxoethyl)propane-1,3-diyl dinonanoate]
effect of ionizable cationic lipid content (50%, 58%, 62%, 65%) on transfection rate (splenic T cells): greater in both types of liver cells

SMILES: CCCCCCCCC(=O)OCC(COC(=O)CCCCCCCC)CC(=O)O[C@@H]1C[C@H](OC(=O)CC(COC(=O)CCCCCCCC)COC(=O)CCCCCCCC)CN(C(=O)OCCN(C)C)C1 [CICL-238, (((Rel-(3R,5S)-1-((2-(dimethylamino)ethoxy)carbonyl)piperidine-3,5-diyl)bis(oxy))bis(2-oxoethane-2,1-diyl))bis(propane-2,1,3-triyl) tetranonanoate]
pKa [1, 8]: 7.09 | performance of tLNP: transfection rate and expression level (MESF) (splenic T cells): 3 of the 4 poorest performing tLNP

Second part, led by results:

measured pKa (in tLNP formulation) [1]: fell outside the range of 6 to 7
SMILES: CCCCCCCCC(=O)OCC(COC(=O)CCCCCCCC)CC(=O)O[C@H]1CN(C(=O)OCCN(C)C)C[C@H]1OC(=O)CC(COC(=O)CCCCCCCC)COC(=O)CCCCCCCC [CICL-216, (((Rel-(3S,4R)-1-((2-(dimethylamino)ethoxy)carbonyl)pyrrolidine-3,4-diyl)bis(oxy))bis(2-oxoethane-2,1-diyl))bis(propane-2,1,3-triyl) tetranonanoate]
performance of tLNP: transfection rate and expression level (MESF) (splenic T cells): 3 of the 4 poorest performing tLNP

measured pKa (in tLNP formulation) [1]: fell outside the range of 6 to 7
SMILES: CCCCCCCCC(=O)OCC(COC(=O)CCCCCCCC)CC(=O)OC[C@@H]1C[C@@H](OC(=O)CC(COC(=O)CCCCCCCC)COC(=O)CCCCCCCC)CN1C(=O)SCCN(C)C [CICL-217, 2-(2-(((2S,4R)-1-(((2-(dimethylamino)ethyl)thio)carbonyl)-4-((4-(nonanoyloxy)-3-((nonanoyloxy)methyl)butanoyl)oxy)pyrrolidin-2-yl)methoxy)-2-oxoethyl)propane-1,3-diyl dinonanoate]
performance of tLNP: transfection rate and expression level (MESF) (splenic T cells): 3 of the 4 poorest performing tLNP

pKa [1, 7]: 6.25 | pKa [1, 8]: 6.25
SMILES: CCCCCCCCC(=O)OCC(COC(=O)CCCCCCCC)CC(=O)OC[C@@H]1C[C@H](OC(=O)CC(COC(=O)CCCCCCCC)COC(=O)CCCCCCCC)CN1C(=O)N1CCN(C)CC1 [CICL-239, 2-(2-(((2S,4S)-1-(4-methylpiperazine-1-carbonyl)-4-((4-(nonanoyloxy)-3-((nonanoyloxy)methyl)butanoyl)oxy)pyrrolidin-2-yl)methoxy)-2-oxoethyl)propane-1,3-diyl dinonanoate]
